Laboratory results: patent publication US12077503B2, “Substituted cyclic amides and their use as herbicides” (FMC CORPORATION, priority 2015, dated 2024)

What was measured:
Assay type in all cases: in vivo
[1] = test system: barnyardgrass (Echinochloa crus-galli); test: Test A preemergence; conditions: Echinochloa crus-galli, pre-emergence, 240 h, Preemergence; for pest or weed control at 31 g/ha: 31 g ai/ha, 0 to 100 scale where 0 is no effect and 100 is complete control, read-out: Barnyardgrass plant response rating; for pest or weed control at 125 g/ha: 125 g ai/ha, visual injury rating after approximately 10 d, read-out: Barnyardgrass plant response rating (0 to 100 scale, 0 is no effect, 100 is complete control)
How it was run: (§1)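 Visual injury scores from 0, no effect, to 100, complete control, were assigned versus untreated controls roughly 10 d after treatment in the greenhouse. Test chemicals, formulated with surfactant in a non-phytotoxic solvent, were applied to planted seeds as a preemergence soil spray or postemergence to one- to two-leaf plants 2 to 10 cm tall, in loam–sand soil.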

[2] = test system: ryegrass, Italian (Italian ryegrass, Lolium multiflorum); test: Test A preemergence; conditions: Lolium multiflorum, pre-emergence, 240 h, 0 to 100 scale where 0 is no effect and 100 is complete control, read-out: Ryegrass, Italian plant response rating; for pest or weed control at 31 g/ha: 31 g ai/ha, Preemergence; for pest or weed control at 125 g/ha: 125 g ai/ha, preemergence, approx. 10 d
How it was run: as §1

Kochia (Kochia scoparia) [3] = test: Test A preemergence; conditions: Bassia scoparia, pre-emergence, 240 h, 0 to 100 scale where 0 is no effect and 100 is complete control, read-out: Kochia plant response rating; for pest or weed control at 31 g/ha: 31 g ai/ha, Preemergence; for pest or weed control at 125 g/ha: 125 g ai/ha, preemergence, approx. 10 d
How it was run: as §1

[4] = test system: pigweed (Amaranthus retroflexus); test: Test A preemergence; conditions: Amaranthus retroflexus, pre-emergence, 240 h, 0 to 100 scale where 0 is no effect and 100 is complete control, read-out: Pigweed plant response rating; for pest or weed control at 31 g/ha: 31 g ai/ha, Preemergence; for pest or weed control at 125 g/ha: 125 g ai/ha, preemergence, approx. 10 d
[5] = test system: giant foxtail (Setaria faberii); test: Test A preemergence; conditions: Setaria faberi, pre-emergence, 240 h, Preemergence; for pest or weed control at 31 g/ha: 31 g ai/ha, 0 to 100 scale where 0 is no effect and 100 is complete control, read-out: Foxtail, Giant plant response rating; for pest or weed control at 125 g/ha: 125 g ai/ha, visual injury rating after approximately 10 d, read-out: Foxtail, Giant plant response rating (0 to 100 scale, 0 is no effect, 100 is complete control)
How it was run: as §1

[6] = test system: ragweed (common ragweed, Ambrosia elatior); test: Test A preemergence; conditions: Ambrosia artemisiifolia, pre-emergence, 240 h, 0 to 100 scale where 0 is no effect and 100 is complete control, read-out: Ragweed plant response rating; for pest or weed control at 31 g/ha: 31 g ai/ha, Preemergence; for pest or weed control at 125 g/ha: 125 g ai/ha, preemergence, approx. 10 d
How it was run: as §1

[7] = test system: barnyardgrass (Echinochloa crus-galli); test: Test A postemergence; conditions: Echinochloa crus-galli, post-emergence, 240 h; for pest or weed control at 125 g/ha: 125 g ai/ha, postemergence, visual injury on 0 to 100 scale (0 no effect, 100 complete control), approx. 10 d, read-out: Barnyardgrass plant response rating; for pest or weed control at 31 g/ha: Postemergence, 31 g ai/ha, visual injury after approx. 10 d, 0 to 100 scale, 0 no effect, 100 complete control, read-out: Plant response rating, Barnyardgrass
How it was run: as §1

corn (Zea mays) = test: Test A postemergence; conditions: Zea mays, post-emergence, 240 h; for plant injury at 125 g/ha: 125 g ai/ha, postemergence, visual injury on 0 to 100 scale (0 no effect, 100 complete control), approx. 10 d, read-out: Corn plant response rating; for Corn plant response rating (crop injury, 0 = no effect, 100 = complete kill) at 31 g/ha: Postemergence, 31 g ai/ha, visual injury after approx. 10 d, 0 to 100 scale, 100 complete control
How it was run: as §1

[8] = test system: ryegrass, Italian (Italian ryegrass, Lolium multiflorum); test: Test A postemergence; conditions: Lolium multiflorum, post-emergence, 240 h; for pest or weed control at 125 g/ha: 125 g ai/ha, postemergence, visual injury on 0 to 100 scale (0 no effect, 100 complete control), approx. 10 d, read-out: Ryegrass, Italian plant response rating; for pest or weed control at 31 g/ha: Postemergence, 31 g ai/ha, visual injury after approx. 10 d, 0 to 100 scale, 0 no effect, 100 complete control, read-out: Plant response rating, Ryegrass, Italian
How it was run: as §1

Kochia (Kochia scoparia) [9] = test: Test A postemergence; conditions: Bassia scoparia, post-emergence, 240 h; for pest or weed control at 125 g/ha: 125 g ai/ha, postemergence, visual injury on 0 to 100 scale (0 no effect, 100 complete control), approx. 10 d, read-out: Kochia plant response rating; for pest or weed control at 31 g/ha: Postemergence, 31 g ai/ha, visual injury after approx. 10 d, 0 to 100 scale, 0 no effect, 100 complete control, read-out: Plant response rating, Kochia
How it was run: as §1

[10] = test system: pigweed (Amaranthus retroflexus); test: Test A postemergence; conditions: Amaranthus retroflexus, post-emergence, 240 h; for pest or weed control at 125 g/ha: 125 g ai/ha, postemergence, visual injury on 0 to 100 scale (0 no effect, 100 complete control), approx. 10 d, read-out: Pigweed plant response rating; for pest or weed control at 31 g/ha: Postemergence, 31 g ai/ha, visual injury after approx. 10 d, 0 to 100 scale, 0 no effect, 100 complete control, read-out: Plant response rating, Pigweed
How it was run: as §1

[11] = test system: giant foxtail (Setaria faberii); test: Test A postemergence; conditions: Setaria faberi, post-emergence, 240 h; for pest or weed control at 125 g/ha: 125 g ai/ha, postemergence, visual injury on 0 to 100 scale (0 no effect, 100 complete control), approx. 10 d, read-out: Foxtail, Giant plant response rating; for pest or weed control at 31 g/ha: Postemergence, 31 g ai/ha, visual injury after approx. 10 d, 0 to 100 scale, 0 no effect, 100 complete control, read-out: Plant response rating, Foxtail, Giant
How it was run: as §1

[12] = test system: ragweed (common ragweed, Ambrosia elatior); test: Test A postemergence; conditions: Ambrosia artemisiifolia, post-emergence, 240 h; for pest or weed control at 125 g/ha: 125 g ai/ha, postemergence, visual injury on 0 to 100 scale (0 no effect, 100 complete control), approx. 10 d, read-out: Ragweed plant response rating; for pest or weed control at 31 g/ha: Postemergence, 31 g ai/ha, visual injury after approx. 10 d, 0 to 100 scale, 0 no effect, 100 complete control, read-out: Plant response rating, Ragweed
How it was run: as §1

[13] = test system: wheat (Triticum aestivum); test: Test A postemergence; conditions: Triticum aestivum, post-emergence, 240 h; for plant injury at 125 g/ha: 125 g ai/ha, postemergence, visual injury on 0 to 100 scale (0 no effect, 100 complete control), approx. 10 d, read-out: Wheat plant response rating; for plant injury at 31 g/ha: Postemergence, 31 g ai/ha, visual injury after approx. 10 d, 0 to 100 scale, 0 no effect, 100 complete control, read-out: Plant response rating, Wheat
How it was run: as §1

[14] = test system: blackgrass (Alopecurus myosuroides); test: Test A postemergence; conditions: Alopecurus myosuroides, post-emergence, 240 h; for pest or weed control at 125 g/ha: 125 g ai/ha, postemergence, visual injury on 0 to 100 scale (0 no effect, 100 complete control), approx. 10 d, read-out: Blackgrass plant response rating; for pest or weed control at 31 g/ha: Postemergence, 31 g ai/ha, visual injury after approx. 10 d, 0 to 100 scale, 0 no effect, 100 complete control, read-out: Plant response rating, Blackgrass
How it was run: as §1

[15] = test system: Galium (catchweed bedstraw, Galium aparine); test: Test A postemergence; conditions: Galium, post-emergence, 240 h; for pest or weed control at 125 g/ha: 125 g ai/ha, postemergence, visual injury on 0 to 100 scale (0 no effect, 100 complete control), approx. 10 d, read-out: Galium plant response rating; for pest or weed control at 31 g/ha: Postemergence, 31 g ai/ha, visual injury after approx. 10 d, 0 to 100 scale, 0 no effect, 100 complete control, read-out: Plant response rating, Galium
How it was run: as §1

[16] = test system: barnyardgrass (Echinochloa crus-galli); test: Test B flooded paddy test; conditions: Echinochloa crus-galli, 250 g ai/ha, Flood; 0 to 100 scale where 0 is no effect and 100 is complete control; read-out: Barnyardgrass plant response rating
How it was run: (§2)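 Response scored visually against untreated controls, 0 = no effect and 100 = complete control, 13–15 d after treatment in the greenhouse. Compounds added to paddy water held 3 cm above soil surface. Treatment given at 2-leaf stage.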

rice (Oryra sativa) = test: Test B flooded paddy test; conditions: Oryza sativa, 250 g ai/ha, Flood; 0 to 100 scale where 0 is no effect and 100 is complete control; read-out: Rice plant response rating
How it was run: as §2

[17] = test system: sedge, umbrella (small-flower umbrella sedge, Cyperus difformis); test: Test B flooded paddy test; conditions: Cyperus difformis, 250 g ai/ha, Flood; 0 to 100 scale where 0 is no effect and 100 is complete control; read-out: Sedge, Umbrella plant response rating
How it was run: as §2

[18] = test system: ducksalad (Heteranthera limosa); test: Test B flooded paddy test; conditions: Heteranthera limosa, 250 g ai/ha, Flood; 0 to 100 scale where 0 is no effect and 100 is complete control; read-out: Ducksalad plant response rating
How it was run: as §2

SMILES	pest or weed control at 31 g/ha [1]	pest or weed control at 125 g/ha [1]	pest or weed control at 31 g/ha [2]	pest or weed control at 125 g/ha [2]	pest or weed control at 31 g/ha (Kochia (Kochia scoparia) [3])	pest or weed control at 125 g/ha (Kochia (Kochia scoparia) [3])	pest or weed control at 31 g/ha [4]	pest or weed control at 125 g/ha [4]	pest or weed control at 31 g/ha [5]	pest or weed control at 125 g/ha [5]	pest or weed control at 31 g/ha [6]	pest or weed control at 125 g/ha [6]	pest or weed control at 125 g/ha [7]	pest or weed control at 31 g/ha [7]	plant injury at 125 g/ha (corn (Zea mays))	Corn plant response rating (crop injury, 0 = no effect, 100 = complete kill) at 31 g/ha (corn (Zea mays))	pest or weed control at 125 g/ha [8]	pest or weed control at 31 g/ha [8]	pest or weed control at 125 g/ha (Kochia (Kochia scoparia) [9])	pest or weed control at 31 g/ha (Kochia (Kochia scoparia) [9])	further results
Cc1ccc([C@H]2CN(C)C(=O)[C@@H]2C(=O)Nc2cnccc2C(F)(F)F)cc1 [Compound 1067]	30%	100%	20%	70%	0%	70%	0%	0%	90%	100%	0%	60%	60%	20%	0%	0%	0%	0%	30%	0%	pest or weed control at 125 g/ha [10]: 0%; pest or weed control at 31 g/ha [10]: 0%; pest or weed control at 125 g/ha [11]: 90%; pest or weed control at 31 g/ha [11]: 30%; pest or weed control at 125 g/ha [12]: 0%; pest or weed control at 31 g/ha [12]: 0%; plant injury at 125 g/ha [13]: 40%; plant injury at 31 g/ha [13]: 0%; pest or weed control at 125 g/ha [14]: 50%; pest or weed control at 31 g/ha [14]: 0%; pest or weed control at 125 g/ha [15]: 50%; pest or weed control at 31 g/ha [15]: 0%; pest or weed control at 250 g/ha [16]: 20%; pest or weed control at 250 g/ha (rice (Oryra sativa)): 0%; pest or weed control at 250 g/ha [17]: 0%; pest or weed control at 250 g/ha [18]: 85%
Cc1ccncc1NC(=O)[C@H]1C(=O)N(C)C[C@@H]1c1ccc(C(F)(F)F)cc1 [Compound 1068]	0%	0%	0%	0%	0%	0%	0%	0%	0%	0%	0%	0%	0%	0%	0%	0%	0%	0%	0%	0%	pest or weed control at 125 g/ha [10]: 0%; pest or weed control at 31 g/ha [10]: 0%; pest or weed control at 125 g/ha [11]: 0%; pest or weed control at 31 g/ha [11]: 0%; pest or weed control at 125 g/ha [12]: 0%; pest or weed control at 31 g/ha [12]: 0%; plant injury at 125 g/ha [13]: 0%; plant injury at 31 g/ha [13]: 0%; pest or weed control at 125 g/ha [14]: 0%; pest or weed control at 31 g/ha [14]: 0%; pest or weed control at 125 g/ha [15]: 0%; pest or weed control at 31 g/ha [15]: 0%; pest or weed control at 250 g/ha [16]: 0%; pest or weed control at 250 g/ha (rice (Oryra sativa)): 0%; pest or weed control at 250 g/ha [17]: 0%; pest or weed control at 250 g/ha [18]: 90%
